Consider twelve molecules from ChEMBL document CHEMBL1201862, “PubChem BioAssay data set” (2004).

Among the test systems are A498; BT-549; DU-145; HL-60; IGROV-1; K562; LOX IMVI; MDA-MB-435; Malme-3M; NCI-H226; NCI-H23; OVCAR-3; SF-295; SF-539; SNB-75; SR; UACC-62; MCF7; NCI/ADR-RES; MDA-N.
Holding throughout (test): NCI tumour cell line growth inhibition, 48 h

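Cells were grown in 96-well plates and exposed to each compound for 48 hours at five concentrations; endpoints were interpolated linearly between bracketing concentrations, or set to the highest concentration if not reached. Abbreviation: GI50, concentration required for 50% inhibition of growth.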 Activity calls are given as the source filed them. No stated cut-off is given here; in the data, active = GI50 up to about 1.1 µM and inactive = higher.

`CC1=C(N2CC2)C(=O)c2nc3n(c2C1=O)CCC3O` (centres undefined): the GI50 with A498 is 0.205 µM (active); in the assay on BT-549, 0.0171 µM (active); with DU-145, 0.0111 µM (active); with HL-60 it was 0.566 µM (active); in the assay on IGROV-1 it was 0.461 µM (active); in the assay on K562, 0.472 µM (active). Besides, the GI50 is 0.619 µM (active) with LOX IMVI; 0.0188 µM (active) in the assay on MDA-MB-435; 0.176 µM (active) with Malme-3M; 0.697 µM (active) with NCI-H226; 0.104 µM (active) in the assay with NCI-H23; 0.275 µM (active) in the assay on OVCAR-3. For the same molecule, the GI50 is 0.166 µM (active) in the assay on SF-295; 0.254 µM (active) with SF-539; 0.485 µM (active) in the assay on SNB-75; 2.25 µM (inactive) in the assay on SR; 0.168 µM (active) in the assay on UACC-62.

Turning to `O=C1CCC[C@]2(CCCC(=O)N2)C1`, the GI50 in the assay with A498, with HL-60, in the assay on IGROV-1, in the assay on K562, with LOX IMVI and with Malme-3M was > 100 µM (inactive) in each case. Moreover, the GI50 in the assay with NCI-H226 was > 100 µM (inactive); in the assay on NCI-H23, > 100 µM (inactive); with OVCAR-3 it was > 100 µM (inactive); in the assay on SF-295 it was > 100 µM (inactive); in the assay with SF-539 it was > 100 µM (inactive); in the assay with SNB-75, 77.4 µM (inactive). Moreover, the GI50 in the assay with SR and in the assay on UACC-62 was > 100 µM (inactive) in each case.

Take `COc1cc(C2C3=C(CCCC3=O)N(c3ccc(C)cc3)C3=C2C(=O)CCC3)c([N+](=O)[O-])cc1OC`: the GI50 is > 100 µM (inactive) with A498; > 100 µM (inactive) in the assay with BT-549; 45.4 µM (inactive) in the assay on HL-60; > 100 µM (inactive) with IGROV-1; 79.3 µM (inactive) with K562; 83.6 µM (inactive) in the assay with LOX IMVI. In addition, the GI50 in the assay with MCF7 was 39.4 µM (inactive); with NCI-H226, 76.9 µM (inactive); in the assay on NCI-H23, > 100 µM (inactive); in the assay on NCI/ADR-RES it was > 100 µM (inactive); in the assay on OVCAR-3, 96.2 µM (inactive); in the assay with SF-539 it was 61.1 µM (inactive). The GI50 was 24.4 µM (inactive) with SNB-75, 54.2 µM (inactive) in the assay with SR and 90.4 µM (inactive) in the assay on UACC-62.

Regarding `O=C1NCN(c2ccccc2)C12CCN(CC1COc3ccccc3O1)CC2` (centres undefined) [SPIROXATRINE], the GI50 is 71.6 µM (inactive) in the assay on A498; 77.4 µM (inactive) in the assay with DU-145; > 100 µM (inactive) with HL-60; 27.5 µM (inactive) in the assay with IGROV-1; > 100 µM (inactive) with K562; > 100 µM (inactive) in the assay on LOX IMVI. Also, the GI50 is > 100 µM (inactive) in the assay with MCF7; > 100 µM (inactive) with MDA-MB-435; > 100 µM (inactive) in the assay with MDA-N; 40.6 µM (inactive) with Malme-3M; 49.9 µM (inactive) in the assay with NCI-H226; 44.3 µM (inactive) in the assay on NCI-H23. For the same molecule, the GI50 is 47.5 µM (inactive) in the assay on NCI/ADR-RES; 28.6 µM (inactive) in the assay on OVCAR-3; 33.8 µM (inactive) in the assay with SF-295; 62.5 µM (inactive) in the assay on SF-539; 36.4 µM (inactive) in the assay with SNB-75; > 100 µM (inactive) in the assay with SR. For the same molecule, the GI50 in the assay with UACC-62 was > 100 µM (inactive).

For `[O-][S+]1CSSC1`, the GI50 in the assay with A498 was 43.8 µM (inactive); in the assay with HL-60, 2.56 µM (inactive); in the assay on IGROV-1, 22 µM (inactive); with K562, 3.07 µM (inactive); in the assay on LOX IMVI, 2.2 µM (inactive); in the assay with Malme-3M, 36.7 µM (inactive). In addition, the GI50 in the assay with NCI-H226 is 26.3 µM (inactive); in the assay on NCI-H23, 28.7 µM (inactive); in the assay with OVCAR-3, 17.9 µM (inactive); with SF-295 it was 20.7 µM (inactive); in the assay with SF-539, 19.7 µM (inactive); in the assay on SNB-75, 27.7 µM (inactive). Besides, the GI50 is 9.79 µM (inactive) with SR and 10.4 µM (inactive) in the assay on UACC-62.

With `Nc1ncnc2c1ncn2C1C=CC(CP(=O)(O)O)C1` (centres undefined), the GI50 in the assay with DU-145, in the assay with IGROV-1, in the assay on LOX IMVI, in the assay with MCF7, in the assay on MDA-MB-435 and in the assay with MDA-N was > 100 µM (inactive) throughout. The GI50 with Malme-3M, with NCI-H226, with NCI-H23, with NCI/ADR-RES, in the assay on OVCAR-3 and in the assay with SF-295 was > 100 µM (inactive) in each case. The GI50 in the assay with SF-539, in the assay on SNB-75, in the assay with SR and in the assay with UACC-62 was > 100 µM (inactive) each time.

As for `O=C(CC(C(=O)c1cccs1)c1ccsc1)c1ccc(Cl)cc1` (centres undefined), the GI50 in the assay with A498, in the assay on DU-145, in the assay with HL-60, with IGROV-1, with K562 and with LOX IMVI was > 100 µM (inactive) throughout. The GI50 was > 100 µM (inactive) in the assay with MCF7; > 100 µM (inactive) in the assay on MDA-MB-435; > 100 µM (inactive) in the assay with MDA-N; > 100 µM (inactive) with Malme-3M; 81.8 µM (inactive) in the assay on NCI-H226; > 100 µM (inactive) in the assay with NCI-H23. Moreover, the GI50 was 83.8 µM (inactive) in the assay on NCI/ADR-RES; > 100 µM (inactive) in the assay on SF-295; > 100 µM (inactive) with SF-539; > 100 µM (inactive) in the assay on SNB-75; > 100 µM (inactive) in the assay with SR; > 100 µM (inactive) in the assay on UACC-62.

On to `O=C(/C=C/c1ccc(Cl)c(Cl)c1)c1ccccc1Cl`, for which the GI50 with A498 is 17 µM (inactive); with HL-60, 6.61 µM (inactive); with IGROV-1, 9.84 µM (inactive); in the assay with K562, 7.16 µM (inactive); in the assay on LOX IMVI, 13.2 µM (inactive); in the assay with Malme-3M it was 16.6 µM (inactive). Moreover, the GI50 in the assay with NCI-H226 was 16.6 µM (inactive); in the assay on NCI-H23 it was 13.4 µM (inactive); in the assay with OVCAR-3, 9.27 µM (inactive); in the assay with SF-295, 13.7 µM (inactive); with SF-539 it was 3.63 µM (inactive); in the assay on SNB-75, 9.14 µM (inactive). Besides, the values for the GI50 in the assay with SR and with UACC-62 were 4.42 µM (inactive) and 12.8 µM (inactive), respectively.

Take `CN(C)C(=S)N1C(=S)N(c2ccccc2)C(=N/c2ccccc2)/C1=N\c1ccccc1`: the GI50 with A498, in the assay with DU-145, in the assay on HL-60, with IGROV-1, with K562 and with LOX IMVI was > 100 µM (inactive) throughout. The GI50 with MDA-MB-435, with MDA-N, with Malme-3M, in the assay on NCI-H226, in the assay with NCI-H23 and in the assay with NCI/ADR-RES was > 100 µM (inactive) in each case. Besides, the GI50 in the assay on SF-295, with SF-539, with SNB-75, in the assay with SR and in the assay on UACC-62 was > 100 µM (inactive) each time.

For `Cc1ccc(S(=O)(=O)n2c3c(c4ccccc42)CCN2C(=O)C(S(=O)(=O)c4ccccc4)=CCC32)cc1` (centres undefined), the GI50 in the assay with A498 was 0.213 µM (active); with DU-145, 0.17 µM (active); in the assay with HL-60, 0.233 µM (active); in the assay with IGROV-1 it was 0.184 µM (active); in the assay with K562 it was 0.202 µM (active); in the assay with LOX IMVI, 0.185 µM (active). Also, the GI50 in the assay with MCF7 was 0.164 µM (active); in the assay on MDA-MB-435, 0.211 µM (active); in the assay with MDA-N, 0.192 µM (active); in the assay with Malme-3M, 0.213 µM (active); in the assay on NCI-H226 it was 1.77 µM (inactive); with NCI-H23, 0.158 µM (active). The GI50 with NCI/ADR-RES was 0.218 µM (active); with OVCAR-3, 0.164 µM (active); with SF-295, 1.79 µM (inactive); with SF-539, 0.191 µM (active); in the assay with SNB-75, 0.157 µM (active); in the assay with SR it was 0.255 µM (active). In the assay on UACC-62, the GI50 was 0.27 µM (active).

With `C=CCOC(=O)N1c2ccc(O)cc2[C@@]23O[C@@]24[C@@H]1C#C/C=C\C#C[C@]3(O)C(OC)(OC)C[C@@H]4C`, the GI50 in the assay on A498 is 25.5 µM (inactive); in the assay on DU-145 it was 46.6 µM (inactive); in the assay with HL-60, 32.8 µM (inactive); with IGROV-1 it was 25.8 µM (inactive); in the assay with K562, 34.8 µM (inactive); in the assay on MCF7, 35 µM (inactive). In addition, the GI50 with MDA-MB-435 was 15.1 µM (inactive); with MDA-N it was 28.8 µM (inactive); in the assay on Malme-3M it was 26.8 µM (inactive); in the assay with NCI-H226, 24.9 µM (inactive); in the assay on NCI-H23, 24.4 µM (inactive); in the assay on NCI/ADR-RES it was 32.3 µM (inactive). Also, the GI50 in the assay on SF-295 is 36.9 µM (inactive); in the assay on SF-539, 21.6 µM (inactive); in the assay on SNB-75, 12.1 µM (inactive); in the assay on SR, 24.2 µM (inactive); with UACC-62, 33.7 µM (inactive).

For `COc1cc2c3cc1Oc1c(OC)c(OC)cc4c1[C@@H](Cc1ccc(O)c(c1)Oc1ccc(cc1)C[C@@H]3N(C)CC2)N(C)CC4.c1ccccc1`, the GI50 was 20.3 µM (inactive) with A498; 10.2 µM (inactive) with HL-60; 20 µM (inactive) with IGROV-1; 8.69 µM (inactive) with K562; 17.1 µM (inactive) in the assay on LOX IMVI; 17.2 µM (inactive) in the assay with Malme-3M. Moreover, the GI50 is 22.2 µM (inactive) in the assay on NCI-H226; 24.1 µM (inactive) with NCI-H23; 14.4 µM (inactive) with OVCAR-3; 16.4 µM (inactive) with SF-295; 3.71 µM (inactive) with SF-539; 6.27 µM (inactive) in the assay with SNB-75. For the same molecule, the GI50 in the assay with SR is 2.33 µM (inactive); in the assay on UACC-62, 16 µM (inactive).
